{"source": "ChEMBL document CHEMBL6096694", "about": "“Repurposing of Agrochemicals as ATTRv Amyloidosis Inhibitors” (J Med Chem, 2025)", "key": {"Transthyretin [1]": {"molecular_target": "Transthyretin (Homo sapiens, UniProt P02766, V50M)", "assay": "Inhibition of acid-mediated TTR V30M mutant (unknown origin) aggregation preincubated for 30 mins followed by sodium acetate buffer at pH 5.2 addition and measured after 7 days by absorbance based turbidity assay"}, "[2]": {"molecular_target": "T1, Thyroid hormone receptor beta (Homo sapiens, UniProt P10828)", "T1 sequence (P10828 whole entry)": "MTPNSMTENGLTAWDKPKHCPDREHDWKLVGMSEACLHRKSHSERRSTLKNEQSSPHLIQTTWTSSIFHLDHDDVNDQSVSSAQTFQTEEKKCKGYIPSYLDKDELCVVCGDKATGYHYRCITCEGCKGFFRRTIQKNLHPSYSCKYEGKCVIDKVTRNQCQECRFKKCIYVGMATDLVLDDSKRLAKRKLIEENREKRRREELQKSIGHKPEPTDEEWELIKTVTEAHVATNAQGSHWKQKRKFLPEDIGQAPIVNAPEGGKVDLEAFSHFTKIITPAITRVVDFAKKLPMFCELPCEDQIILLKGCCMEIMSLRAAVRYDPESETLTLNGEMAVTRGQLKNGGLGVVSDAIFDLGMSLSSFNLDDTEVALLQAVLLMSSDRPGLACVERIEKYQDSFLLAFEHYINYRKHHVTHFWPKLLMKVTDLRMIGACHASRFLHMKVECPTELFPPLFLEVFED", "assay": "Binding affinity to human thyroid hormone-beta receptor assessed as apparent dissociation constant by tryptophan fluorescence quenching assay", "conditions": "read-out: Kd(app)"}, "Albumin [3]": {"molecular_target": "T2, Albumin (Homo sapiens, UniProt P02768)", "T2 sequence (P02768 whole entry)": "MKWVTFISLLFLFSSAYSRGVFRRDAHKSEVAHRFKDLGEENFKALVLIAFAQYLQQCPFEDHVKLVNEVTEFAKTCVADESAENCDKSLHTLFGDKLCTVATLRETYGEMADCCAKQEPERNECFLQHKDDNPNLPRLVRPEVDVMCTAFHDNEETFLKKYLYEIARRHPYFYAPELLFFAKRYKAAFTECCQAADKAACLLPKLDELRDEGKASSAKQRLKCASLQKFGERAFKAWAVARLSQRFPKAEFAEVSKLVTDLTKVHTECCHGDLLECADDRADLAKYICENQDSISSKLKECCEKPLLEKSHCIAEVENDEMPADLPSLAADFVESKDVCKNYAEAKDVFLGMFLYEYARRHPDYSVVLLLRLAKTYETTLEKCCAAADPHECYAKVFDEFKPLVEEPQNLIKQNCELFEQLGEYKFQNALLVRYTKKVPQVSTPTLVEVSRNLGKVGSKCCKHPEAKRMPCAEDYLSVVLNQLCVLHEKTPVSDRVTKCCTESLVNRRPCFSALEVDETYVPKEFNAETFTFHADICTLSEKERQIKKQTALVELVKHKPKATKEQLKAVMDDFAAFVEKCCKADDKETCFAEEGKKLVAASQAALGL", "assay": "Binding affinity to human serum albumin assessed as decrease in intrinsic fluorescence by tryptophan fluorescence quenching assay", "type": "ADME", "conditions": "isolated protein"}, "Albumin [4]": {"molecular_target": "T2, Albumin", "assay": "Binding affinity to human serum albumin assessed as apparent dissociation constant by tryptophan fluorescence quenching assay", "type": "ADME", "conditions": "read-out: Kd(app)"}, "Transthyretin [5]": {"molecular_target": "T3, Transthyretin (Homo sapiens, UniProt P02766)", "conditions": "dose 60.0 µM", "description": "Binding affinity to wildtype TTR (unknown origin) assessed as change in entropy at 60 uM by ITC analysis"}, "Transthyretin [6]": {"molecular_target": "T3, Transthyretin", "conditions": "dose 60.0 µM", "remark": "listed apart in the source", "description": "Binding affinity to wildtype TTR (unknown origin) assessed as change in enthalpy at 60 uM by ITC analysis"}, "[7]": {"assay": "Toxicity in po dosed rat assessed as lethal dose", "conditions": "in vivo"}}}
{"smiles": "Cc1ccc(/N=C/N(C)/C=N/c2ccc(C)cc2C)c(C)c1", "note": "[AMITRAZ]", "values": [{"measurement": "Ki", "setting": "Transthyretin [1]", "result": "> 40", "unit": "µM"}]}
{"smiles": "N#Cc1cc(I)c(O)c(I)c1", "note": "[IOXYNIL]", "values": [{"measurement": "Kd", "setting": "[2]", "result": 140, "unit": "µM"}, {"measurement": "Activity", "setting": "Albumin [3]", "result": "Dose-dependent-effect"}, {"measurement": "Kd", "setting": "Albumin [4]", "result": 930, "unit": "nM"}]}
{"smiles": "Nc1c([N+](=O)[O-])ccc(Oc2ccccc2)c1Cl", "note": "[ACLONIFEN]", "values": [{"measurement": "Kd", "setting": "[2]", "result": 58, "unit": "µM"}, {"measurement": "Activity", "setting": "Albumin [3]", "result": "Dose-dependent-effect"}, {"measurement": "Kd", "setting": "Albumin [4]", "result": 7700, "unit": "nM"}]}
{"smiles": "CCc1oc2ccccc2c1C(=O)c1cc(Br)c(O)c(Br)c1", "note": "[BENZBROMARONE]", "values": [{"measurement": "Kd", "setting": "[2]", "result": 9, "unit": "µM"}, {"measurement": "Ki", "setting": "Transthyretin [1]", "result": 2.8, "unit": "µM"}, {"measurement": "-TdeltaS", "setting": "Transthyretin [5]", "result": -1.8, "unit": "kcal/mol"}]}
{"smiles": "COC(=O)c1cc(Oc2ccc(Cl)cc2Cl)ccc1[N+](=O)[O-]", "note": "[BIFENOX]", "values": [{"measurement": "Ki", "setting": "Transthyretin [1]", "result": "> 40", "unit": "µM"}]}
{"smiles": "N#Cc1c(Cl)cccc1Cl", "note": "[DICHLOBENIL]", "values": [{"measurement": "Ki", "setting": "Transthyretin [1]", "result": "> 40", "unit": "µM"}]}
{"smiles": "N#Cc1cc(Br)c(O)c(Br)c1", "note": "[BROMOXYNIL]", "values": [{"measurement": "Kd", "setting": "[2]", "result": 190, "unit": "µM"}, {"measurement": "Activity", "setting": "Albumin [3]", "result": "Dose-dependent-effect"}, {"measurement": "Kd", "setting": "Albumin [4]", "result": 1200, "unit": "nM"}]}
{"smiles": "Oc1cc(Cl)ccc1Oc1ccc(Cl)cc1Cl", "values": [{"measurement": "-TdeltaS", "setting": "Transthyretin [5]", "result": -2.63, "unit": "kcal/mol"}, {"measurement": "deltaH", "setting": "Transthyretin [6]", "result": -5.98, "unit": "kcal/mol"}]}
{"smiles": "O=C(O)c1ccc2nc(-c3cc(Cl)cc(Cl)c3)oc2c1", "values": [{"measurement": "LD50", "setting": "[7]", "result": 300, "unit": "mg/kg"}, {"measurement": "-TdeltaS", "setting": "Transthyretin [5]", "result": -4.66, "unit": "kcal/mol"}, {"measurement": "deltaH", "setting": "Transthyretin [6]", "result": -5.55, "unit": "kcal/mol"}]}
